Experimental data from patent publication US20250066388A1, “1,3,4,7-TETRAHYDRO-2H-PYRROLO[3',2':5,6]PYRIDO[2,3-B][1,4]OXAZEPINE BCL-2 INHIBITORS” (AbbVie Inc., priority 2022, published 2025).
pKi: −log10 of the molar value. Several values for one entry are separate records, joined by “and”; a condition that tells them apart may be missing. Equal values may be shown once. Read-outs that look alike come from different tables or passages of the source.

Columns and labels:
[1] = target: Bcl-2 protein (Homo sapiens (Human), UniProt P10415); experiment: TR-FRET binding assay, Bcl-2; settings: F-Bak peptide probe, GST-Bcl-2
[2] = Bioavailability study: pharmacokinetics after single intravenous or oral dose in mouse; type: in vivo; settings: for half-life: CD-1, mouse, plasma, 1 mg/kg
Procedure: Studies were conducted to evaluate the pharmacokinetic profiles of Example 25 herein and Example 2 in WO 2019/040550 after single intravenous or oral dose in mouse. CD-1 mice (male) were obtained from Charles River Laboratories (Wilmington, MA).
The pharmacokinetics of Example 25 herein and Example 2 in WO 2019/040550 were evaluated following single 1 mg/kg intravenous or oral doses in mouse. Example 25 herein and Example 2 in WO 2019/040550 were prepared as a solution in DMSO: Tween 80: PEG-400: Dextrose 5% in Water (5:5:20:70, v/v) for the IV and oral dose mouse studies. The intravenous dose was administered as a slow bolus to the penile vein under isoflurane anesthesia. The oral doses were administrated by gavage. Serial blood samples were obtained […], 0.25, 0.5, 1.0, 4, 6, 9, 12, 24, 32 and 48 hours post dosing and […]. Plasma was separated by centrifugation and stored frozen (<−15° C.) until analysis.
HPLC-MS/MS bioanalytical methods were utilized for the quantitation of Example 25 herein and Example 2 in WO 2019/040550 concentration in plasma. The analytical methods used protein precipitation to extract compound from plasma. All samples were combined with a minimum two volume equivalents of organic solvent containing internal standard, vortexed and then centrifuged to pellet the proteins. Supernatants were used for subsequent analysis by liquid chromatography-tandem mass spectrometry (LC-MS/MS). Studies involving quantitative analysis employed spiked standards in plasma that were processed simultaneously with the samples.
Analytes were separated using reverse phase chromatography on a C8 or C18 column prior to analysis on an API5500™ (or higher) mass spectrometer with a Turbo-Ion Spray source. Peak areas were determined using Sciex Analyst™ 1.6 (or higher) software or Sound Analytics DiscoveryQuant™ 2.0 (or higher) software. Actual concentrations (when required) were calculated by regression analysis of the peak area ratio (parent/internal standard) of the spiked standards versus concentrations.
Peak plasma concentrations (Cmax) and the time to peak plasma concentration (Tmax) were determined directly from the plasma concentration data for each animal. The compound plasma concentration data were submitted to multi-exponential curve fitting using WinNonlin software. The area under the plasma concentration-time curve from 0 to t hours after dosing (AUC0-t, t=time of the last measurable plasma concentration) was calculated using the linear trapezoidal rule. The residual area extrapolated to infinity, determined as the final measured plasma concentration (Ct) divided by the terminal plasma elimination rate constant (β), was added to the AUC0-t to produce the total area under the curve (AUC0-∞). The apparent total plasma clearance (CLp) was calculated by dividing the administered dose by the AUC0-∞. Half-life (t1/2) was determined with the following calculation: t1/2=ln (2)/elimination rate constant. The initial volume of distribution (Vc) was calculated as the dose divided by the extrapolated concentration at time=0 (C0). The volume of distribution at steady state, Vss, was estimated as a product of the total plasma clearance (CLp) and the mean residence time (MRT); the terminal-phase volume of distribution, Vβ, was derived from the total plasma clearance value (CLp) divided by the terminal plasma elimination rate constant (β). Oral bioavailability (F) was calculated as the dose-normalized AUC0-∞ (AUC0-∞/D) from the oral dose divided by the corresponding dose normalized AUC0-∞ from intravenous dosing.

[3] = target: Bcl-xL protein (Homo sapiens (Human), UniProt Q07817); experiment: TR-FRET binding assay, Bcl-xL; settings: F-Bak peptide probe
[4] = IV (1 mg/kg), mouse plasma, individual mouse
[5] = PO (1 mg/kg), mouse plasma, individual mouse

Bcl-2 protein, sequence (P10415 other isoform, or with tags, fused parts or gaps): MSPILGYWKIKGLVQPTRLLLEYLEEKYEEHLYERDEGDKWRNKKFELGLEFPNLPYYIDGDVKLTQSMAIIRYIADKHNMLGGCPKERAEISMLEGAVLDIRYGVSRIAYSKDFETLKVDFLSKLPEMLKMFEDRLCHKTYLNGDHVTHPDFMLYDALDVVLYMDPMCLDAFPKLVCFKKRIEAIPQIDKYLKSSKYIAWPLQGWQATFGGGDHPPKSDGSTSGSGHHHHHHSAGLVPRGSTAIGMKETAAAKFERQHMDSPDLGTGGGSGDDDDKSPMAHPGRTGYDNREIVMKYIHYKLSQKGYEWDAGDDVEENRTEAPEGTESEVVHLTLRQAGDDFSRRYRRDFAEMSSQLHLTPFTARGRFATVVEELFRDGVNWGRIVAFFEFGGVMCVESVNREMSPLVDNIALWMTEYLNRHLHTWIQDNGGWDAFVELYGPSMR
Bcl-xL protein, sequence (Q07817 other isoform, or with tags, fused parts or gaps): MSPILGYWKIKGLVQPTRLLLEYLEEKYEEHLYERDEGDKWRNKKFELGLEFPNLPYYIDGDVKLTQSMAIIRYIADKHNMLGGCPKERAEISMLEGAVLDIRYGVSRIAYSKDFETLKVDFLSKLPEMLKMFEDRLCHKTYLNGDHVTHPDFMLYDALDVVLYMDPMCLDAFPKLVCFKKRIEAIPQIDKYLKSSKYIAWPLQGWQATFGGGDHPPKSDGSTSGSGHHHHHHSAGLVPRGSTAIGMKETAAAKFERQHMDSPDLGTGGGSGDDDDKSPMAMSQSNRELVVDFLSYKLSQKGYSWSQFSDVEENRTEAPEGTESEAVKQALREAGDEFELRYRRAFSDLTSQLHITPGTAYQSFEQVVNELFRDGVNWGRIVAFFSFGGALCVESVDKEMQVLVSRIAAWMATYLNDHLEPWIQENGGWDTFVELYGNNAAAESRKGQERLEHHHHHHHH

CO[C@@H]1CC[C@@H](CNc2ccc(S(=O)(=O)NC(=O)c3ccc(N4CCN5CC6=C(c7ccc(Cl)cc7)CC(C)(C)C[C@H]6OCCCOC[C@@H]5C4)cc3N3CCCOc4nc5[nH]ccc5cc43)cc2[N+](=O)[O-])OC1 [Example 25, 4-((4aS,10aR)-14-(4-chlorophenyl)-12,12-dimethyl-1,2,4a,5,8,9,10a,11,13,15-decahydro-7H,12H-benzo[f]pyrazino[2,1-c][1,8]dioxa[4]azacycloundecin-3(4H)-yl)-2-(3,4-dihydro-2H-pyrrolo[3′,2′:5,6]pyrido[2,3-b][1,4]oxazepin-1(7H)-yl)-N-((4-((((2S,5R)-5-methoxytetrahydro-2H-pyran-2-yl)methyl)amino)-3-nitrophenyl)sulfonyl)benzamide]
pKi [1]: 9.56 | AUC [2, 4]: 11200 ng·h/mL and 12900 ng·h/mL | C0 [2, 4]: 5020 ng/mL and 3470 ng/mL | CLP [2, 4]: 1.48 mL/min/kg | MRT [2, 4]: 9.8 h | VSS [2, 4]: 0.93 L/kg and 0.76 L/kg | Vβ [2, 4]: 0.95 L/kg and 1.0 L/kg and 0.90 L/kg | t1/2 [2, 4]: 7.9 h and 8.1 h | Vβ ([2]; IV (1 mg/kg), mouse plasma, mean): 0.96 L/kg | AUC [2, 5]: 4330 ng·h/mL and 4490 ng·h/mL | Cmax [2, 5]: 279 ng/mL and 274 ng/mL | half-life ([2]; male, iv, IV (1 mg/kg), individual mouse): 10 h | half-life ([2]; male, po, PO (1 mg/kg), harmonic mean): 8.7 h | half-life ([2]; male, po, PO (1 mg/kg), individual mouse): 8.7 h | MRT ([2]; male, CD-1, IV (1 mg/kg), mouse plasma, individual mouse, read-out: MRT): 10 h | clearance ([2]; male, CD-1, IV (1 mg/kg), mouse plasma, mean, read-out: CLP (converted)): 1.28 mL/min/kg | Tmax ([2]; male, CD-1, PO (1 mg/kg), mouse plasma, individual mouse): 4 h | pKi [3]: 7.87
